Experimental findings from US6521405B1, “Cell-free replication system and uses thereof” (Cancer Research Campaign Technology Limited, priority 1997, dated 2003) are described below.

For this assay, the system named is G1 NIH 3T3 nuclei. As to the kind of experiment: Cell-free DNA replication assay: G1 nuclei in HeLa S phase cytosol, biotin-dUTP incorporation, percentage of nuclei replicating (staining yellow). Particulars: about 50% yellow staining nuclei without inhibitor. It counts as biochemical, mouse.

Protocol: Nuclear templates were prepared by Dounce homogenisation as described previously, but from NIH 3T3 cells. G0, quiescent, cells were prepared by allowing NIH 3T3 cells to proliferate until they reached confluence and arrested their proliferation. They were released from quiescence by trypsinization and replating at ¼ the cell density. Cells were harvested as described previously (Krude et al., 1997) at measured times after release from quiescence. The 3T3 cells treated this way pass through G1 and begin to enter S phase synchronously about 21 hrs later. Nuclei and cytosolic extract were produced by hypotonically swelling the cells, scrape harvesting and Dounce-homogenizing. […]
In vitro replication assays were performed in 50 μl reactions in 1.5 ml polypropylene tubes (Sarstedt or Eppendorf). […] Biotin-dUTP incorporation was detected by staining with fluorescein-streptavidin, whilst total DNA was visualized by propidium iodide. […] The percentage of nuclei replicating were calculated from many prints of confocal images. […]
The competence of G1 NIH 3T3 nuclei to replicate was determined by repeating the collection of G1 nuclei at different times following release from G0 arrest and incubating the nuclei with S phase cytosol in accordance with the procedures of Example 1. […]

In the case of `CC[C@H](CO)Nc1nc(NCc2ccccc2)c2ncn(C(C)C)c2n1` [roscovitin], the “decrease of yellow staining nuclei” value was approximately 5 fold (1 μM) and approximately 5 fold (1 mM).
